The supplement of paper PMC13380429

What was measured:
[1] = test system: A549-ACE2 infected with SARS-CoV-2; assay: cell count relative to DMSO; higher = less toxic; settings: 24 h
Caco-2 [2] = assay: cell viability relative to DMSO; higher = less toxic; settings: 72 h
Calu-3 [3] = assay: as above; settings: 72 h
HepG2 [4] = assay: as above; settings: 72 h
U2OS [5] = assay: as above; settings: 72 h
Vero E6 [6] = assay: as above; settings: 72 h
[7] = test system: A549-ACE2 infected with SARS-CoV-2; assay: SARS-CoV-2 infection rate relative to DMSO; higher = more infection; settings: 24 h
A549-ACE2 [8] = assay: phospholipidosis EC50; higher = less potent phospholipidosis inducer
A549-ACE2 [9] = assay: drug-induced phospholipidosis relative to tamoxifen; higher = more phospholipidosis
[10] = test system: A549-ACE2 infected with SARS-CoV-2; assay: morphology score (similarity to uninfected cells); higher = more like uninfected cells; settings: 24 h
Caco-2 [11] = assay: relative viability EC50 (midpoint between 100% and the lowest measured viability); higher = less toxic; settings: 72 h
Calu-3 [12] = assay: as above; settings: 72 h
U2OS [13] = assay: as above; settings: 72 h
Vero E6 [14] = assay: as above; settings: 72 h
Caco-2 [15] = assay: drug sensitivity score (DSS) for viability; higher = more toxic; extreme values may be limits of the assay; settings: 72 h
Calu-3 [16] = assay: as above; settings: 72 h
HepG2 [17] = assay: as above; settings: 72 h
U2OS [18] = assay: as above; settings: 72 h
Vero E6 [19] = assay: as above; settings: 72 h
HepG2 [20] = assay: relative viability EC50 (midpoint between 100% and the lowest measured viability); higher = less toxic; settings: 72 h

Cc1[nH]c(/C=C2\C(=O)Nc3ccc(S(=O)(=O)N(C)c4cccc(Cl)c4)cc32)c(C)c1C(=O)N1CCN(C)CC1
Settings | SARS-CoV-2 infection rate [%] | cell count [%] | cell viability [%] | morphology score | phospholipidosis EC50 [nM]
A549-ACE2 [8], 24 h | – | – | – | – | 4770
A549-ACE2 [8], 48 h | – | – | – | – | 3940
Caco-2 [2], 1 nM | – | – | 96 | – | –
Caco-2 [2], 10 nM | – | – | 98.5 | – | –
Caco-2 [2], 100 nM | – | – | 99.9 | – | –
Caco-2 [2], 1000 nM | – | – | 97.5 | – | –
Caco-2 [2], 10000 nM | – | – | 85.2 | – | –
Calu-3 [3], 1 nM | – | – | 106 | – | –
Calu-3 [3], 10 nM | – | – | 93.5 | – | –
Calu-3 [3], 100 nM | – | – | 112 | – | –
Calu-3 [3], 1000 nM | – | – | 101 | – | –
Calu-3 [3], 10000 nM | – | – | 83.8 | – | –
HepG2 [4], 1 nM | – | – | 106 | – | –
HepG2 [4], 10 nM | – | – | 105 | – | –
HepG2 [4], 100 nM | – | – | 93.5 | – | –
HepG2 [4], 1000 nM | – | – | 103 | – | –
HepG2 [4], 10000 nM | – | – | 66.5 | – | –
U2OS [5], 1 nM | – | – | 104 | – | –
U2OS [5], 10 nM | – | – | 98.2 | – | –
U2OS [5], 100 nM | – | – | 106 | – | –
U2OS [5], 1000 nM | – | – | 101 | – | –
U2OS [5], 10000 nM | – | – | 91 | – | –
Vero E6 [6], 1 nM | – | – | 101 | – | –
Vero E6 [6], 10 nM | – | – | 102 | – | –
Vero E6 [6], 100 nM | – | – | 94.3 | – | –
Vero E6 [6], 1000 nM | – | – | 107 | – | –
Vero E6 [6], 10000 nM | – | – | 88.1 | – | –
[1], 0.3 µM | – | 94 | – | – | –
[1], 3 µM | – | 105 | – | – | –
[1], 10 µM | – | 70 | – | – | –
[1], 30 µM | – | 85 | – | – | –
[7], 0.3 µM | 89 | – | – | – | –
[7], 3 µM | 46 | – | – | – | –
[7], 10 µM | 20 | – | – | – | –
[7], 30 µM | 34 | – | – | – | –
[10], 0.3 µM | – | – | – | 0.29 | –
[10], 3 µM | – | – | – | 0.61 | –
[10], 10 µM | – | – | – | 0.45 | –
[10], 30 µM | – | – | – | 0.53 | –

drug-induced phospholipidosis [%], A549-ACE2 [9]
Settings | 0.3 µM | 0.833333 µM | 3.33333 µM | 6.66667 µM | 10 µM | 30 µM
24 h | 22.5 | 42.3 | 133 | 230 | 269 | 324
48 h | 12.7 | 30.6 | 129 | – | 333 | 340
72 h | 9.3 | 20.7 | 128 | – | – | –

Settings | drug sensitivity score | relative viability EC50 [nM]
Caco-2 [11] | – | > 10000
Caco-2 [15] | 0.5 | –
Calu-3 [12] | – | > 10000
Calu-3 [16] | 0.3 | –
HepG2 [17] | 1.3 | –
U2OS [13] | – | > 10000
U2OS [18] | 0 | –
Vero E6 [14] | – | > 10000
Vero E6 [19] | 0 | –

C[C@@H](Oc1cc(-n2cnc3ccc(CN4CCN(C)CC4)cc32)sc1C(N)=O)c1ccccc1C(F)(F)F
Settings | SARS-CoV-2 infection rate [%] | cell count [%] | cell viability [%] | morphology score | phospholipidosis EC50 [nM]
A549-ACE2 [8], 24 h | – | – | – | – | 2900
Caco-2 [2], 1 nM | – | – | 96.8 | – | –
Caco-2 [2], 10 nM | – | – | 95.2 | – | –
Caco-2 [2], 100 nM | – | – | 67.2 | – | –
Caco-2 [2], 1000 nM | – | – | 62.7 | – | –
Caco-2 [2], 10000 nM | – | – | 68.5 | – | –
Calu-3 [3], 1 nM | – | – | 105 | – | –
Calu-3 [3], 10 nM | – | – | 86.9 | – | –
Calu-3 [3], 100 nM | – | – | 84.5 | – | –
Calu-3 [3], 1000 nM | – | – | 84.8 | – | –
Calu-3 [3], 10000 nM | – | – | 36.1 | – | –
HepG2 [4], 1 nM | – | – | 98.2 | – | –
HepG2 [4], 10 nM | – | – | 101 | – | –
HepG2 [4], 100 nM | – | – | 23.9 | – | –
HepG2 [4], 1000 nM | – | – | 19.4 | – | –
HepG2 [4], 10000 nM | – | – | 8 | – | –
U2OS [5], 1 nM | – | – | 104 | – | –
U2OS [5], 10 nM | – | – | 101 | – | –
U2OS [5], 100 nM | – | – | 67.9 | – | –
U2OS [5], 1000 nM | – | – | 51.8 | – | –
U2OS [5], 10000 nM | – | – | 48.8 | – | –
Vero E6 [6], 1 nM | – | – | 101 | – | –
Vero E6 [6], 10 nM | – | – | 104 | – | –
Vero E6 [6], 100 nM | – | – | 77.2 | – | –
Vero E6 [6], 1000 nM | – | – | 64.6 | – | –
Vero E6 [6], 10000 nM | – | – | 36 | – | –
[1], 0.1 µM | – | 60 | – | – | –
[1], 0.3 µM | – | 55 | – | – | –
[1], 1 µM | – | 61 | – | – | –
[1], 3 µM | – | 62 | – | – | –
[7], 0.1 µM | 104 | – | – | – | –
[7], 0.3 µM | 101 | – | – | – | –
[7], 1 µM | 103 | – | – | – | –
[7], 3 µM | 36 | – | – | – | –
[10], 0.1 µM | – | – | – | 0.01 | –
[10], 0.3 µM | – | – | – | 0.06 | –
[10], 1 µM | – | – | – | 0.19 | –
[10], 3 µM | – | – | – | 0.65 | –

A549-ACE2 [9], 24 h
Settings | drug-induced phospholipidosis [%]
0.3 µM | 14.3
0.833333 µM | 26.9
3.33333 µM | 156
6.66667 µM | 198
10 µM | 260
30 µM | 246

Settings | drug sensitivity score | relative viability EC50 [nM]
Caco-2 [15] | 11.1 | –
Calu-3 [12] | – | 1730
Calu-3 [16] | 5.5 | –
HepG2 [17] | 25.5 | –
HepG2 [20] | – | 54
U2OS [13] | – | 80.4
U2OS [18] | 13.3 | –
Vero E6 [14] | – | 444
Vero E6 [19] | 9.3 | –

COc1ccc(C[C@H]2NC[C@H](O)[C@H]2OC(C)=O)cc1 [anisomycin]
Settings | SARS-CoV-2 infection rate, [7] [%] | cell count, [1] [%] | cell viability, Caco-2 [2] [%] | cell viability, Calu-3 [3] [%] | cell viability, HepG2 [4] [%] | cell viability, U2OS [5] [%] | cell viability, Vero E6 [6] [%] | morphology score, [10]
1 nM | – | – | 99.4 | 103 | 96.1 | 103 | 94.1 | –
10 nM | – | – | 87 | 97.9 | 98.5 | 95.6 | 93 | –
0.1 µM | 7 | 103 | – | – | – | – | – | 0.85
100 nM | – | – | 58.5 | 67.4 | 39.4 | 53.4 | 34.1 | –
0.3 µM | 6 | 85 | – | – | – | – | – | 0.65
1 µM | 18 | 64 | – | – | – | – | – | 0.48
1000 nM | – | – | 24.8 | 35.1 | 11.8 | 5.4 | 9.8 | –
3 µM | 14 | 34 | – | – | – | – | – | 0.46
10000 nM | – | – | 26.5 | 29.1 | 3.7 | 0.5 | 0.4 | –

A549-ACE2 [9], 24 h
Settings | drug-induced phospholipidosis [%]
0.3 µM | 4.72
0.833333 µM | -0.99

Settings | drug sensitivity score | relative viability EC50 [nM]
Caco-2 [11] | – | 69.1
Caco-2 [15] | 18.9 | –
Calu-3 [12] | – | 117
Calu-3 [16] | 16.1 | –
HepG2 [17] | 24.6 | –
HepG2 [20] | – | 72.8
U2OS [13] | – | 110
U2OS [18] | 22.9 | –
Vero E6 [14] | – | 61.4
Vero E6 [19] | 25.9 | –
